Eight compounds from US20080248024A1, “THERAPEUTIC AGENT FOR CANCER, INFLAMMATION, AND AUTO-IMMUNE DISEASE CONTAINING INHIBITOR OF ZINC FINGER PROTEIN 91” (Korea Research Institute of Bioscience and Biotechnology, priority 2007, published 2008) can be followed below.

Series [1] deals with ZFP91. The experiment in a line: ZFP91 expression in MCF-7 treated with NF-κB activators. The following applies: TNF-α 20 ng/ml, PMA 20 ng/ml, IL1-β 20 ng/ml, H2O2 1 mM, 0, 3, 6, 14, 24 hours. Type of series: cell-based, human. The protocol: To examine whether ZFP91 expression was regulated by NF-κB, the breast cancer cell line MCF-7 was treated with the NF-κB activators, TNF-α (20 ng/ml), PMA (20 ng/ml), IL1-β (20 ng/ml) and H2O2 (1 mM) for 0, 3, 6, 14, and 24 hours. After 0, 3, 6, 14, and 24 hours from the treatment, poly(A)^+ RNA was extracted, followed by Northern blotting. The probe used for Northern blotting was prepared as follows; TOPO cloning vector inserted with ZFP91 was digested with EcoRI and the insert alone was used after random prime labeling with [α-^32P]dCTP. ZFP91 expressions over the time were investigated. […] The NF-κB activators p65, IKKα, IKKβ, and NIK were expressed in MCF-7 cells. 48 hours later, ZFP91 expressions in the cells were investigated.

Series [2] has as its system ZFP91 promoter. The experiment in a line: ZFP91 promoter luciferase reporter assay (pGL3-ZFP91prom-LUC). The format is cell-based, human. (Reporter assays use an easily measured gene product as a stand-in for the process of interest.)
Series [3] has as its system ZFP91. The experiment in a line: ZFP91 expression after ZFP91 siRNA, Western blotting. The format is cell-based, human. The following applies: various cancer cells. The text has this:
To investigate the effect of ZFP91 on HIF-1 activation, a human stomach cancer cell line, AGS cells and AGS cells transformed with ZFP91 were transfected with HRE dependent reporter plasmid. ZFP91 siRNA oligomers (SEQ. ID. NO: 1-NO: 4; siRNA sequences corresponding to amino terminal region ccaggtg gcattagtag tgaa, sense: r(AGG UGG CAU UAG UAG UGA A)dTdT, antisense: r(UUC ACU ACU AAU GCC ACC U)dGdG; produced by GIAGEN) were introduced into the above cell lines by using RANiFect Transfection reagent (QIAGEN, Germany).
Particularly, After 24 hours incubation of 1×10^5 cells/well distributed in a 24-well plate. siRNA oligomer (3.8 ul of SIRNA oligomer: 1 ug) was introduced into the cells with 96.2 ul of medium or EC-R buffer and 6 ul of RNAiFect reagent (Quiagen) and then the plate was kept at room temperature for 10-15 minutes. During the incubation, the medium of 24-well plate was replaced with 300 μl of fresh medium and the mixture of siRNA oligomer and RNAiFect reagent was slowly added and carefully mixed. The reaction mixture was incubated for 24 hours under normoxic condition, and then further cultured for another 24 hours in an incubator in the presence of 1% oxygen. Some of extracts of the cells proceeded to luciferase assay and HIF-1 induced luciferase activity was measured. […]
(A western blot detects proteins with antibodies after separation by electrophoresis.)

The subject of series [4] is MAGEA4, TNFAIP3 and ZFP91. The series can be described thus: Northern blotting of candidate genes regulated by kamebakaurin. Type of series: cell-based, human. The note with it: kamebakaurin 10 μg/ml, 5 hours, MDA-MB-231 cells. The method, then:
MDA-MB-231 cells were treated with DMSO and kamebakaurin (10 μg/ml), followed by culture for 5 hours. The cells were washed with cold PBS three times, and poly(A)^+ RNA was extracted by using FastTrack 2.0 kit (Invitrogen). 2 μg of the extracted poly (A)^+ RNA was eletrohporesed on 1% agarose-formaldehyde gel, which was transferred onto a nylon membrane (Roche, Mannheim, Germany). To investigate the expressions of selected candidate genes, the PCR product was purified by using Wizard PCR PrepsDNA Purification Systems (Promega Corporation, Madison, Wis., U.S.A.) and then used as a probe. Each probe was labeled with [α-^32P]dCTP using Rediprime™ II random prime labeling system (Amersham Biosciences). Non-incorporated ^32P was removed by using spin column (ProbeQuant™ G-50 Micro Columns; Amersham Biosciences). The prepared cDNA was used as a probe for hybridization with the membrane. After the hybridization, the membrane was washed with 2×SSC/0.1% SDS, which was exposed on X-ray film at −80° C. with intensifying screen.

The test system of series [5] is HIF-1α. The experiment in a line: HIF-1α expression induced under 1% oxygen in AGS cells expressing ZFP91. The following applies: AGS cells expressing ZFP91, 1% oxygen.
The test system of series [6] is MDA-MB-435. The experiment in a line: MDA-MB-435 xenograft metastasis to the lung in nude mice. The note with it: for Frequency (metastatic mice/total mice) / Minimum metastasis number-maximum metastasis number / number of metastasis in lung (median value) / Mean number of metastasis in lung: 35 days after transplantation; for Mean number of metastasis in lung: colonies >diameter 2 mm. The format is in vivo. The method, then: (§1) The human breast cancer cell line MDA-MB-435 was transplanted in the glandular fatty tissues of nude mice (Charles River Laboratory, Wilmington, Mass., USA) at 5 weeks (1×10^6 cells/mouse). 12 days later, the nude mice having tumor were grouped by 8. Kamebakaurin dissolved in 0.5% Tween 80 was administered into the abdominal cavity every other day at the concentrations of 1.5 and 15 mg/kg 12 times in total. The tumor size was measured for 23 days after the transplantation. The tumor size was calculated by “width 2 (square)×[…]/2=tumor volume (mm^3)”.
After 35 days from the transplantation, the lung of the mouse was excised and washed with water and fixed in Bouin's solution (SIGMA). The colonies metastasized to the surface of the lung (>diameter 2 mm) were counted under microscope and the mean values are shown in Table 2.

In series [7] the test system is PTPN11, SPIN, ECT2, EWSR1, MLLT4, MAGEA4, TNFAIP3 and ZFP91. The experiment in a line: RT-PCR of candidate genes regulated by kamebakaurin. Type of series: cell-based, human. The following applies: kamebakaurin 10 μg/ml, 5 hours, MDA-MB-231 cells. The protocol:
A human breast cancer cell line MDA-MB-231 cells was treated with DMSO and kamebakaurin (10 μg/ml) respectively, followed by culture for 5 hours. The cells were washed with cold PBS three times, and then total RNA was extracted by using RNeasy Mini kits (Qiagen, Santa Clarita, Calif., USA) 5 μg of the total RNA was used for the synthesis of cDNA using Invitrogen kit Access RT-PCR Kit (Promega, Madison, Wis., U.S.A.). The ZFP91 specific primer was constructed based on the nucleotide sequence of Genebank (Accession No. NM-053023). Each candidate gene specific primer was constructed based on the informed nucleotide sequences (Table 1). PCR was performed with prepared cDNA as follows: predenaturation at 95° C. for 5 minutes, denaturation at 94° C. for 1 minute, annealing at 50° C.-60° C. for 2 minutes, polymerization at 70° C. for 1 minute, 30 cycles from denaturation to polymerization. The gene-specific PCR products proceeded to electrophoresis on 1% agarose gel, followed by EtBr staining (FIG. 1).

Series [8] relates to ZFP91. The series can be described thus: TNF-α mediated ZFP91 expression in FLAG-ZFP91 expressing AGS cells, Western blotting. The following applies: pre-treatment 30 minutes with KA 1, 10 ug/ml, celastrol 0.2, 2 ug/ml, parthenolide 0.5, 5 ug/ml, TNF-α 50 ng/ml 3 hours.
Protocol: TNF-α (50 ng/ml) was treated thereto for 3 hours. Then, cell lysate was obtained, followed by Western blot analysis using a mouse anti-FLAG antibody.
FLAG-ZFP91 expressing AGS cells were pre-treated with the NF-κB inhibitors, kamebakaurin (KA), celastrol (Cel), parthenolide (PTN), for 30 minutes. TNF-α mediated ZFP91 expression was investigated by Western blotting using anti-ZFP91 antibody.
In series [9] the test system is MDA-MB-435. The experiment in a line: MDA-MB-435 xenograft tumor growth in nude mice. The format is in vivo. The following applies: 15 mg/kg into the abdominal cavity every other day, 12 times. The method, then: as §1
Setting [10] is: ZFP91 promoter containing both KB1 and KB2.

Entries after “also recorded” stand apart in the source; their conditions may differ. Where two headings read alike, the source gives them in different places.

Regarding `OO` [H2O2], in [1], the “ZFP91 at mRNA level” value is on record as “not much increased” and the “ZFP91 at protein level” value is given as “significantly increased time-dependently”. In addition, in [2] (stomach cancer cell line transfected with pGL3-ZFP91prom-LUC), the ZFP91 promoter activity entry is recorded as “significantly increased”.

As for “ZFP91 siRNA 2: siRNA corresponding to nucleotides 2261-2279 of 3′ untranslated region of ZFP91, SEQ. ID. NO: 3 and NO: 4 (chain 1 GCGGCACACUUAUCUUCAA; chain 2 UUGAAGAUAAGUGUGCCGC; listed as RNA, chemistry not given here)”, the ZFP91 expression entry in series [3] is “Suppression”.

Regarding `[Cl-].[Cl-].[Co+2]` [CoCl2], the ZFP91 promoter activity result in [2] is “significantly increased”.

With TNF-α, in series [1], the “ZFP91 at mRNA level” value is reported as “not much increased” and the “ZFP91 at protein level” value was “significantly increased time-dependently”. Moreover, the ZFP91 promoter activity entry in series [2] (setting [10]) was “induced”.

Turning to `CCCCCCCCCCCCCC(=O)O[C@@H]1[C@@H](C)[C@@]2(O)[C@@H](C=C(CO)C[C@]3(O)C(=O)C(C)=C[C@@H]23)[C@@H]2C(C)(C)[C@]12OC(C)=O` [PMA], in [1], the “ZFP91 at mRNA level” value is recorded as “not much increased” and the “ZFP91 at protein level” value was “significantly increased time-dependently”. Besides, in series [2] (setting [10]), the ZFP91 promoter activity entry is given as “induced”.

As for “IL-1β: pro-inflammatory cytokine, NF-κB activator”, in series [1], the “ZFP91 at mRNA level” value is reported as “not much increased” and the “ZFP91 at protein level” value was “significantly increased time-dependently”. Further, the ZFP91 promoter activity result in [2] (setting [10]) is “induced”.

As for “ZFP91 siRNA 1: siRNA corresponding to the nucleotide sequence 710-730 (NCBI, NM-053023) of ZFP91, SEQ. ID. NO: 1 and NO: 2 (chain 1 GGCAUUAGUAGUGAA; chain 2 UUCACUACUAAUGCCACCU; listed as RNA, chemistry not fully specified)”, in series [3], the ZFP91 expression result is “Suppression”.

For `C=C1C(=O)[C@@]23[C@H](O)C[C@@H]4C(C)(C)CC[C@H](O)[C@@]4(CO)[C@@H]2CC[C@@H]1[C@H]3O` [kamebakaurin, Kamebakaurin], the “expression levels of MAGEA4, TNFAIP3 and ZFP91 (Northern blotting) vs KA-non-treated control” value in series [4] is given as “significantly different”. In [5], the “HIF-1α expression / accumulation” value is recorded as “suppressed; also recorded: inhibited; also recorded: significantly reduced”. In addition, in series [6] (1.5 mg/kg), the “Frequency (metastatic mice/total mice)” value is listed as 6/8, the “Minimum metastasis number-maximum metastasis number” value was “(0-6)”, the “number of metastasis in lung (median value)” value worked out at 3 and the “Mean number of metastasis in lung” value was determined as 3.3. Further, in [6] (15 mg/kg), the “Frequency (metastatic mice/total mice)” value is listed as 6/8, the “Minimum metastasis number-maximum metastasis number” value is reported as “(0-4)”, the “number of metastasis in lung (median value)” value is given as 2 and the “Mean number of metastasis in lung” value is listed as 1.8. For the same compound, in series [6] (15 mg/kg, nude mice, MDA-MB-435), the “metastasis to the lung” value was “significantly inhibited”. For the same compound, the “expression of PTPN11, SPIN, ECT2, EWSR1, MLLT4, MAGEA4, TNFAIP3 and ZFP91 (RT-PCR)” value in series [7] is “down-regulated by at least two times”. In [8], the “TNF-α mediated ZFP91 expression” value is given as “suppressed; also recorded: inhibited”. Besides, the tumor growth result in series [9] was “significantly inhibited”.
